# The supplement of paper PMC11061612
# Legend:
# Assay in all cases: combination Emax (second highest fraction inhibited in the dose matrix, 72 h); higher = more inhibition; extreme values may be limits of the assay
# NB13 (Neuroblastoma) = system: NB13 (Neuroblastoma)
# Method in brief: (§1)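 Bliss excess equals the observed combination effect minus the expected value EA + EB − EA·EB, where EA and EB are the effects of each agent alone. Combination Emax is the second-highest inhibition within the matrix. Inhibition was scaled from CellTiter-Glo 2.0 luminescence, with 0 set by vehicle wells and 1 by blank wells, after 72 hours of two-drug dosing of cells plated in 1536-well plates.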
# [1] = system: UACC-812 (Breast Carcinoma)
# Method in brief: as §1
# [2] = system: JHU-022 (Oral Cavity Carcinoma)
# Method in brief: as §1
# [3] = system: MDA-MB-436 (Breast Carcinoma)
# Method in brief: as §1
# WM1552C (Melanoma) = system: WM1552C (Melanoma)
# Method in brief: as §1
# [4] = system: CGTH-W-1 (Thyroid Gland Carcinoma)
# Method in brief: as §1
# EB2 (Burkitt's Lymphoma) = system: EB2 (Burkitt's Lymphoma)
# Method in brief: as §1
# EW-7 (Ewing's Sarcoma) = system: EW-7 (Ewing's Sarcoma)
# Method in brief: as §1
# PEO1 (Ovarian Carcinoma) = system: PEO1 (Ovarian Carcinoma)
# Method in brief: as §1
# KP-N-YN (Neuroblastoma) = system: KP-N-YN (Neuroblastoma)
# Method in brief: as §1
SMILES,combination Emax (NB13 (Neuroblastoma)),combination Emax [1],combination Emax [2],combination Emax [3],combination Emax (WM1552C (Melanoma)),combination Emax [4],combination Emax (EB2 (Burkitt's Lymphoma)),combination Emax (EW-7 (Ewing's Sarcoma)),combination Emax (PEO1 (Ovarian Carcinoma)),combination Emax (KP-N-YN (Neuroblastoma))
"C=CCn1c(=O)c2cnc(Nc3ccc(N4CCN(C)CC4)cc3)nc2n1-c1cccc(C(C)(C)O)n1 [AZD1775] + CCc1c2c(nc3ccc(O)cc13)-c1cc3c(c(=O)n1C2)COC(=O)[C@]3(O)CC [SN-38] (first compound max 1 µM, partner max 0.3 µM)",0.853,0.513,0.783,0.591,0.611,0.703,0.941,0.966,0.768,–
"C=CCn1c(=O)c2cnc(Nc3ccc(N4CCN(C)CC4)cc3)nc2n1-c1cccc(C(C)(C)O)n1 [AZD1775] + Nc1ccn([C@@H]2O[C@H](CO)[C@@H](O)C2(F)F)c(=O)n1 [Gemcitabine] (first compound max 1 µM, partner max 0.3 µM)",–,0.626,0.617,0.608,0.72,0.761,0.942,1,0.65,–
"CN(CCO)CC[C@H](CSc1ccccc1)Nc1ccc(S(=O)(=O)NC(=O)c2ccc(N3CCC([C@@H](O)c4ccccc4-c4ccc(Cl)cc4)CC3)cc2)cc1S(=O)(=O)C(F)(F)F [AZD4320] + CS(=O)(=O)CCNCc1ccc(-c2ccc3ncnc(Nc4ccc(OCc5cccc(F)c5)c(Cl)c4)c3c2)o1 [Lapatinib] (first compound max 1 µM, 7x7, partner max 10 µM)",0.989,0.616,0.784,0.256,0.571,0.273,0.293,0.979,0.829,–
"Cc1c2c(nn1C)CSCc1cc(n(C)n1)CSc1cc(c3ccccc3c1)OCCCc1c(C(=O)O)n(C)c3c-2c(Cl)ccc13 [AZD5991] + CC(=O)O[C@H]1C(=O)[C@@]2(C)[C@H]([C@H](OC(=O)c3ccccc3)[C@]3(O)C[C@H](OC(=O)[C@H](O)[C@@H](NC(=O)c4ccccc4)c4ccccc4)C(C)=C1C3(C)C)[C@]1(OC(C)=O)CO[C@@H]1C[C@@H]2O [Paclitaxel] (first compound max 1 µM, 7x7, partner max 3 µM)",–,0.794,0.371,0.391,0.989,0.59,0.666,0.984,0.762,0.608
"Cc1c2c(nn1C)CSCc1cc(n(C)n1)CSc1cc(c3ccccc3c1)OCCCc1c(C(=O)O)n(C)c3c-2c(Cl)ccc13 [AZD5991] + CS(=O)(=O)CCNCc1ccc(-c2ccc3ncnc(Nc4ccc(OCc5cccc(F)c5)c(Cl)c4)c3c2)o1 [Lapatinib] (first compound max 1 µM, 7x7, partner max 10 µM)",0.527,0.929,0.705,0.274,0.693,0.221,0.283,0.666,0.442,0.374
"Cc1c2c(nn1C)CSCc1cc(n(C)n1)CSc1cc(c3ccccc3c1)OCCCc1c(C(=O)O)n(C)c3c-2c(Cl)ccc13 [AZD5991] + Nc1ccn([C@@H]2O[C@H](CO)[C@@H](O)C2(F)F)c(=O)n1 [Gemcitabine] (first compound max 1 µM, 7x7, partner max 0.3 µM)",–,0.755,0.659,0.56,0.899,0.688,0.923,1,0.544,–
"C[C@@H]1COCCN1c1cc(C2([S@](C)(=N)=O)CC2)nc(-c2ccnc3[nH]ccc23)n1 [AZD6738] + C1CC(C1)(C(=O)[O-])C(=O)[O-].N.N.[Pt+2] [Carboplatin] (first compound max 10 µM, 7x7, partner max 10 µM)",0.81,0.381,0.513,0.266,0.564,0.302,0.76,0.936,0.675,–
"C[C@@H]1COCCN1c1cc(C2([S@](C)(=N)=O)CC2)nc(-c2ccnc3[nH]ccc23)n1 [AZD6738] + Nc1ccn([C@@H]2O[C@H](CO)[C@@H](O)C2(F)F)c(=O)n1 [Gemcitabine] (first compound max 10 µM, 7x7, partner max 0.3 µM)",–,0.66,0.695,0.621,0.868,0.947,0.942,1,0.696,–
"C[C@@H](Nc1cc(F)cc(F)c1)c1cc(C(=O)N(C)C)cc2c(=O)cc(N3CCOCC3)oc12 [AZD8186] + C1CN(CCC1(C(=O)N[C@@H](CCO)C2=CC=C(C=C2)Cl)N)C3=NC=NC4=C3C=CN4 [AZD5363] (first compound max 10 µM, 7x7, partner max 10 µM)",–,0.333,0.494,0.449,0.339,0.316,0.552,0.678,0.351,0.257
"C[C@@H](Nc1cc(F)cc(F)c1)c1cc(C(=O)N(C)C)cc2c(=O)cc(N3CCOCC3)oc12 [AZD8186] + CC(=O)c1c(C)c2cnc(Nc3ccc(N4CCNCC4)cn3)nc2n(C2CCCC2)c1=O [Palbociclib] (first compound max 10 µM, 7x7, partner max 10 µM)",–,0.389,0.512,0.472,0.352,0.311,0.582,0.509,0.454,0.433
"C[C@@H](Oc1cc(-c2cnn(C3CCNCC3)c2)cnc1N)c1c(Cl)ccc(F)c1Cl [Crizotinib] + CC1=C(C(=CC=C1)Cl)NC(=O)C2=CN=C(S2)NC3=CC(=NC(=N3)C)N4CCN(CC4)CCO [Dasatinib] (first compound max 10 µM, 7x7, partner max 2 µM)",0.801,0.181,0.648,0.3,0.959,0.961,0.591,0.945,0.532,0.71
"C[C@@H](Oc1cc(-c2cnn(C3CCNCC3)c2)cnc1N)c1c(Cl)ccc(F)c1Cl [Crizotinib] + Cn1cnc2c(F)c(Nc3ccc(Br)cc3Cl)c(C(=O)NOCCO)cc21 [Selumetinib] (first compound max 10 µM, 7x7, partner max 10 µM)",0.804,0.154,0.496,0.292,0.864,0.213,0.566,0.929,0.297,0.607
"CS(=O)(=O)CCNCc1ccc(-c2ccc3ncnc(Nc4ccc(OCc5cccc(F)c5)c(Cl)c4)c3c2)o1 [Lapatinib] + Cn1cnc2c(F)c(Nc3ccc(Br)cc3Cl)c(C(=O)NOCCO)cc21 [Selumetinib] (first compound max 10 µM, 7x7, partner max 10 µM)",0.521,0.5,0.702,0.352,0.444,0.245,0.324,0.731,0.52,0.409
"O=C(c1cc(Cc2n[nH]c(=O)c3ccccc23)ccc1F)N1CCN(C(=O)C2CC2)CC1 [Olaparib] + CC1(C)CCC(CN2CCN(c3ccc(C(=O)NS(=O)(=O)c4ccc(NCC5CCOCC5)c([N+](=O)[O-])c4)c(Oc4cnc5[nH]ccc5c4)c3)CC2)=C(c2ccc(Cl)cc2)C1 [Venetoclax] (first compound max 10 µM, 7x7, partner max 1 µM)",–,0.243,0.174,0.277,0.319,0.053,0.242,0.786,0.146,0.728
"O=C(c1cc(Cc2n[nH]c(=O)c3ccccc23)ccc1F)N1CCN(C(=O)C2CC2)CC1 [Olaparib] + CN(CC[C@H](CSC1=CC=CC=C1)NC2=C(C=C(C=C2)S(=O)(=O)NC(=O)C3=CC=C(C=C3)N4CCC(CC4)[C@H](C5=CC=CC=C5C6=CC=C(C=C6)Cl)O)S(=O)(=O)C(F)(F)F)CCO [AZD4320] (first compound max 10 µM, 7x7, partner max 1 µM)",–,0.251,0.163,0.308,0.484,0.0708,0.13,0.944,0.242,0.968
"O=C(c1cc(Cc2n[nH]c(=O)c3ccccc23)ccc1F)N1CCN(C(=O)C2CC2)CC1 [Olaparib] + COc1nnc2ccc(N3CCC(c4ccc(OCCN5CCN(C)C(=O)[C@H]5C)cc4)CC3)nn12 [AZD5153] (first compound max 10 µM, 7x7, partner max 1 µM)",–,0.376,0.35,0.316,0.376,0.218,0.484,0.746,0.361,0.521
"O=C(c1cc(Cc2n[nH]c(=O)c3ccccc23)ccc1F)N1CCN(C(=O)C2CC2)CC1 [Olaparib] + Cc1c2c(nn1C)CSCc1cc(n(C)n1)CSc1cc(c3ccccc3c1)OCCCc1c(C(=O)O)n(C)c3c-2c(Cl)ccc13 [AZD5991] (first compound max 10 µM, 7x7, partner max 1 µM)",–,0.643,0.0997,0.234,0.856,0.0485,0.192,0.787,0.112,0.335
"Cc1nc(-c2cn3c(n2)-c2ccc(-c4cnn(C(C)(C)C(N)=O)c4)cc2OCC3)n(C(C)C)n1 [Taselisib] + O=C(Nc1ccc2[nH]nc(-c3ccncc3)c2c1)[C@@H]1CCN(CC(=O)N2CCN(c3ccc(-c4ncccn4)cc3)CC2)C1 [SCH772984] (first compound max 10 µM, 7x7, partner max 5 µM)",0.424,0.428,0.769,0.469,0.813,0.977,0.563,0.999,0.818,0.553
"CC1(C)CCC(CN2CCN(c3ccc(C(=O)NS(=O)(=O)c4ccc(NCC5CCOCC5)c([N+](=O)[O-])c4)c(Oc4cnc5[nH]ccc5c4)c3)CC2)=C(c2ccc(Cl)cc2)C1 [Venetoclax] + CS(=O)(=O)CCNCc1ccc(-c2ccc3ncnc(Nc4ccc(OCc5cccc(F)c5)c(Cl)c4)c3c2)o1 [Lapatinib] (first compound max 1 µM, 7x7, partner max 10 µM)",0.43,0.471,0.631,0.227,0.187,0.115,0.348,0.656,0.287,0.57
